For the experiment, the target named is T1, Human MGAT-2 (Homo sapiens, UniProt Q3SYC2).
T1 construct: made in house; host or cells: Sf9 cells (membrane preparation)
T1 sequence (Q3SYC2 whole entry): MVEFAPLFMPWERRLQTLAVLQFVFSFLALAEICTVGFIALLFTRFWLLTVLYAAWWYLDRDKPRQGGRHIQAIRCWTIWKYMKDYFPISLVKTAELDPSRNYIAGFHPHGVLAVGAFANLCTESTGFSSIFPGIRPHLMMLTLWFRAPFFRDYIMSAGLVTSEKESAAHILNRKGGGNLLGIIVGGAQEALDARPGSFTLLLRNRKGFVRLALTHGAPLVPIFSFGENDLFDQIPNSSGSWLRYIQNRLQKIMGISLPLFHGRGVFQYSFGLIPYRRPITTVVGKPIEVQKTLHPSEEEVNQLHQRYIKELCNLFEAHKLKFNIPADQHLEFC
As to the kind of experiment: MGAT LCMS Assay. In kind it is biochemical. To be noted: human MGAT2 membranes expressed in Sf9 cells; 100 μM 2-oleoylglycerol, 15 μM oleoyl-coenzyme A; read-out: h-MGAT LCMS IC50. The protocol: Assay plates were run through a fully automated robotics system and shaken for 5 seconds every minute for a total 10 minutes. The reactions were then quenched with 120 μL of ice cold methanol containing 1 μg/mL 1,2-distearoyl-rac-glycerol as the internal standard. Plates were shaken for 2 minutes and spun down to remove protein precipitation. After the spin, samples were transferred to LC/MS compatible PCR plates. For LC/MS analysis, a ThermoFisher Surveyor pump, utilizing a Waters […]® C8, 50×2.1 mm column, was used for the chromatography of enzyme products. The buffer system consists of 0.1% formic acid in water with a mobile phase consisting 0.1% formic acid in methanol. […] The first 0.5 minutes of each injection was diverted to waste to eliminate the presence of Phosphate buffer in the enzymatic reaction. The column was run at 0.6 mL/min and a temperature of 65° C. Mass spectrometry analysis of the samples was performed on a ThermoFisher Quantum Triple quad utilizing APCI (+) as the mode of ionization. […] The ratio of Diolein to internal standard (Peak Area Ratio) is utilized to calculate IC50 values.
In the case of `CCOc1ccc(NC(=O)c2c(-c3ccc(C)cc3)cc(C3CCCC3)[nH]c2=O)cc1` [Example 29, 6-Cyclopentyl-N-(4-ethoxyphenyl)-2-oxo-4-(p-tolyl)-1,2-dihydropyridine-3-carboxamide], the IC50 (commonly the concentration needed to halve the response being measured) is 144 nM.
Turning to `O=c1[nH]c(-c2ccc(OCCCCCC(F)(F)F)cc2F)cc(-c2ccc(C3CC3)cc2)c1-c1nnn[nH]1` [Example 123, 4-(4-Cyclopropylphenyl)-6-(2-fluoro-4-((6,6,6-trifluorohexyl)oxy)phenyl)-3-(1H-tetrazol-5-yl)pyridin-2(1H)-one], the half-maximal inhibitory concentration (IC50) worked out at 11 nM.
For the compound `O=C(NS(=O)(=O)C1CC1)c1c(-c2ccn(C3CCC3)n2)cc(-c2ccc(OCCCC(F)(F)F)cc2F)[nH]c1=O` [Example 77, 4-(1-Cyclobutyl-1H-pyrazol-3-yl)-N-(cyclopropylsulfonyl)-6-(2-fluoro-4-(4,4,4-trifluorobutoxy)phenyl)-2-oxo-1,2-dihydropyridine-3-carboxamide], the IC50 is 143 nM.
Consider `CCCCCc1ccc(-c2cc(-c3ccc(C)cc3)c(C(=O)Nc3ccccc3)c(=O)[nH]2)cc1` [Example 33, 2-Oxo-6-(4-pentylphenyl)-N-phenyl-4-(p-tolyl)-1,2-dihydropyridine-3-carboxamide], for which the IC50 came to 218 nM.
As for `CN(C)c1ncc(-c2cc(C3CCCCC3)[nH]c(=O)c2C(=O)Nc2ccc(OC(F)(F)F)cc2)s1` [Example 82, 6-Cyclohexyl-4-(2-(dimethylamino)thiazol-5-yl)-2-oxo-N-(4-(trifluoromethoxy)phenyl)-1,2-dihydropyridinc-3-carboxamide], the figure is 1 nM; as for `CCc1ccc(-c2cc(-c3ccc(OCCCC(F)(F)F)cc3F)[nH]c(=O)c2C(=O)NS(C)(=O)=O)s1` [Example 135, 4-(5-Ethylthiophen-2-yl)-6-(2-fluoro-4-(4,4,4-trifluorobutoxy)phenyl)-N-(methylsulfonyl)-2-oxo-1,2-dihydropyridine-3-carboxamide], 5 nM.
As for `O=c1[nH]c(-c2ccc(OCCCC(F)(F)F)cc2)cc(-c2cc3ccccc3s2)c1-c1nnn[nH]1` [Example 47, 4-(Benzo[b]thiophen-2-yl)-3-(1H-tetrazol-5-yl)-6-(4-(4,4,4-trifluorobutoxy)phenyl)pyridin-2(1H)-one], the figure is 29 nM; as for `CCc1ccc(-c2cc(-c3ccc(OCCCC(F)(F)F)cc3F)[nH]c(=O)c2-n2nn[nH]c2=O)s1` [Example 152, 4-(5-Ethylthiophen-2-yl)-6-(2-fluoro-4-(4,4,4-trifluorobutoxy)phenyl)-3-(5-oxo-4,5-dihydro-1H-tetrazol-1-yl)pyridin-2(1H)-one], 23 nM; as for `Cc1ccc(-c2cc(-c3ccc(OCCCCCC(F)(F)F)cc3F)[nH]c(=O)c2-n2nn[nH]c2=O)cc1` [Example 159, 6-{2-Fluoro-4-[(6,6,6-trifluorohexyl)oxy]phenyl}-4-(4-methylphenyl)-3-(5-oxo-4,5-dihydro-1H-1,2,3,4-tetrazol-1-yl)-1,2-dihydropyridin-2-one], 38 nM.
In the case of `CCOc1ccc(NC(=O)c2c(-c3cnc(N(C)C)s3)cc(C3(F)CCCCC3)[nH]c2=O)cc1` [Example 10, 4-(2-(Dimethylamino)thiazol-5-yl)-N-(4-ethoxyphenyl)-6-(1-fluorocyclohexyl)-2-oxo-1,2-dihydropyridine-3-carboxamide], the half-maximal inhibitory concentration (IC50) was determined as 17 nM.
With `CCCCCc1ccc(-c2cc(-c3ccc(C)cc3)c(-c3nn[nH]n3)c(=O)[nH]2)cc1` [Example 30, 6-(4-Pentylphenyl)-3-(2H-tetrazol-5-yl)-4-(p-tolyl)pyridin-2(1H)-one] the figure was 150 nM; with `CCc1ccc(-c2cc(-c3ccc(OCCCCCC(F)(F)F)cc3)[nH]c(=O)c2-n2nn[nH]c2=O)s1` [Example 156, 4-(5-Ethylthiophen-2-yl)-3-(5-oxo-4,5-dihydro-1H-1,2,3,4-tetrazol-1-yl)-6-{4-[(6,6,6-trifluorohexyl)oxy]phenyl}-1,2-dihydropyridin-2-one], 143 nM.
Turning to `CC(C)n1ccc(-c2cc(-c3ccc(OCCCCCC(F)(F)F)cc3)[nH]c(=O)c2-c2nnn[nH]2)c1` [Example 57, 4-(1-Isopropyl-1H-pyrrol-3-yl)-3-(1H-tetrazol-5-yl)-6-(4-((6,6,6-trifluorohexyl)oxy)phenyl)pyridin-2(1H)-one], the IC50 was 30 nM.
As for `O=c1[nH]c(-c2ccc(OCCCCCC(F)(F)F)cc2)cc(-c2nn(CC3CC3)cc2Cl)c1-n1nn[nH]c1=O` [Example 158, 4-[4-Chloro-1-(cyclopropylmethyl)-1H-pyrazol-3-yl]-3-(5-oxo-4,5-dihydro-1H-1,2,3,4-tetrazol-1-yl)-6-{4-[(6,6,6-trifluorohexyl)oxy]phenyl}-1,2-dihydropyridin-2-one], the figure is 6 nM; as for `CS(=O)(=O)NC(=O)c1c(-c2ncc(C3CC3)s2)cc(-c2ccc(OCCCC(F)(F)F)cc2F)[nH]c1=O` [Example 141, 4-(5-Cyclopropylthiazol-2-yl)-6-(2-fluoro-4-(4,4,4-trifluorobutoxy)phenyl)-N-(methylsulfonyl)-2-oxo-1,2-dihydropyridine-3-carboxamide], 7 nM; as for `CCOc1ccc(NC(=O)c2c(-c3ccc(C)cc3)cc(-c3cnn(CCCCCC(F)(F)F)c3)[nH]c2=O)cc1` [Example 53, N-(4-Ethoxyphenyl)-2-oxo-4-(p-tolyl)-6-(1-(6,6,6-trifluorohexyl)-1H-pyrazol-4-yl)-1,2-dihydropyridine-3-carboxamide], 267 nM.
With `CS(=O)(=O)NC(=O)c1c(-c2ccn(CC3CC3)n2)cc(-c2ccc(OCCCCCC(F)(F)F)cc2)[nH]c1=O` [Example 105, 4-(1-(Cyclopropylmethyl)-1H-pyrazol-3-yl)-N-(methylsulfonyl)-2-oxo-6-(4-((6,6,6-trifluorohexyl)oxy)phenyl)-1,2-dihydropyridine-3-carboxamide] the figure was 23 nM.
With `O=c1[nH]c(-c2ccc(OCCCCCC(F)(F)F)cc2)cc(-c2ccc(OC(F)F)cc2)c1-n1nn[nH]c1=O` [Example 162, 4-[4-(Difluoromethoxy)phenyl]-3-(5-oxo-4,5-dihydro-1H-1,2,3,4-tetrazol-1-yl)-6-{4-[(6,6,6-trifluorohexyl)oxy]phenyl}-1,2-dihydropyridin-2-one] the figure was 1970 nM; with `O=C(Nc1ccc(OC(F)(F)F)cc1)c1c(-c2cnn(C3CC3)c2)cc(-c2ccc(OCCCC(F)(F)F)cc2)[nH]c1=O` [Example 95, 4-(1-Cyclopropyl-1H-pyrazol-4-yl)-2-oxo-6-(4-(4,4,4-trifluorobutoxy)phenyl)-N-(4-(trifluoromethoxy)phenyl)-1,2-dihydropyridine-3-carboxamide], 17 nM.
On to `O=c1[nH]c(-c2ccc(OCCCCCC(F)(F)F)cc2C(F)(F)F)cc(-c2ccn(CC3CC3)n2)c1-c1nn[nH]n1` [Example 155, 4-[1-(Cyclopropylmethyl)-1H-pyrazol-3-yl]-3-(2H-1,2,3,4-tetrazol-5-yl)-6-{4-[(6,6,6-trifluorohexyl)oxy]-2-(trifluoromethyl)phenyl}-1,2-dihydropyridin-2-one], for which the IC50 was 3 nM.
As for `O=c1[nH]c(-c2ccc(OCCCCCC(F)(F)F)cc2F)cc(-c2ccn(C3CC3)n2)c1-c1nn[nH]n1` [Example 104, 4-(1-Cyclopropyl-1H-pyrazol-3-yl)-6-(2-fluoro-4-((6,6,6-trifluorohexyl)oxy)phenyl)-3-(2H-tetrazol-5-yl)pyridin-2(1H)-one], the figure is 84 nM; as for `CCCCCc1ccc(-c2cc(-c3ccc(C)cc3)c(C(=O)Nc3cccnc3)c(=O)[nH]2)cc1` [Example 23, 2-Oxo-6-(4-pentylphenyl)-N-(pyridin-3-yl)-4-(p-tolyl)-1,2-dihydropyridine-3-carboxamide], 24 nM; as for `Cc1ccc(-c2c(Cl)c(-c3ccc(OCCCC(F)(F)F)cc3)[nH]c(=O)c2-c2nnn[nH]2)cc1` [Example 19, 5-Chloro-3-(1H-tetrazol-5-yl)-4-(p-tolyl)-6-(4-(4,4,4-trifluorobutoxy)phenyl)pyridin-2(1H)-one], 100 nM.
Turning to `CCc1ccc(-c2cc(-c3ccc(OCCCC(F)(F)F)cc3Cl)[nH]c(=O)c2-n2nn[nH]c2=O)s1` [Example 22, 6-(2-Chloro-4-(4,4,4-trifluorobutoxy)phenyl)-4-(5-ethylthiophen-2-yl)-3-(5-oxo-4,5-dihydro-1H-tetrazol-1-yl)pyridin-2(1H)-one], the IC50 turned out to be 252 nM.
With `O=c1[nH]c(-c2ccc(CCCCC(F)(F)F)cc2F)cc(-c2ccn(C3CCC3)n2)c1-c1nnn[nH]1` [Example 103] the figure was 26 nM.
As for `COc1ccc(NC(=O)c2c(-c3ccc(C)cc3)cc(-c3nc(-c4ccccc4)oc3C)[nH]c2=O)cc1` [Example 4, N-(4-Methoxyphenyl)-6-(5-methyl-2-phenyloxazol-4-yl)-2-oxo-4-(p-tolyl)-1,2-dihydropyridine-3-carboxamide], the figure is 5 nM.
As for `CS(=O)(=O)NC(=O)c1c(-c2ccn(CC3CC3)n2)c(F)c(-c2ccc(OCCCC(F)(F)F)cc2)[nH]c1=O` [Example 109, 4-(1-(Cyclopropylmethyl)-1H-pyrazol-3-yl)-5-fluoro-N-(methylsulfonyl)-2-oxo-6-(4-(4,4,4-trifluorobutoxy)phenyl)-1,2-dihydropyridine-3-carboxamide], the figure is 130 nM; as for `CCc1cnc(-c2cc(-c3ccc(CCC4CC4)cc3)[nH]c(=O)c2-c2nn[nH]n2)s1` [Example 149, 6-(4-(2-Cyclopropylethyl)phenyl)-4-(5-ethylthiazol-2-yl)-3-(2H-tetrazol-5-yl)pyridin-2(1H)-one], 52 nM.
